Assays:
[1] = test system: Arabidopsis seedlings; test: Sugar sensitivity bioassay of light-grown seedlings on 6% glucose or 0.8 mM 2-dGlc plates; format: in vivo; conditions: control plants, constant light; 6% glucose or low concentration (0.8 mM) 2-dGlc
Source text: To test the hypothesis that AtHXKs act as sugar sensors in intact plants, transgenic plant models were established by introducing sense and antisense genes to alter AtHXK levels. Wild-type (Bensheim) Arabidopsis plants were transformed with binary vectors carrying gene fusions with the CaMV35S promoter and sense AtHXK1 (sense-AtHXK1), sense AtHXK2 (sense-AtHXK2), antisense AtHXK1 (anti-AtHXK1), or antisense AtHXK2 (anti-AtHXK2) using a standard Agrobacterium-mediated root transformation protocol (Czako et al., Mol. Gen. Genet. 235, 33 (1992)). The presence of a transgene was determined by NPTII expression and resultant kanamycin resistance, and by DNA blot analysis. Several transgenic lines of the T3 generation homozygous for the sense or antisense transgenes were selected for further analyses.
Sugar sensitivity of transgenic plants was examined by performing bioassays using 6% glucose or 0.8 mM 2-deoxyglucose (2-dGlc), a nonmetabolizable glucose analog. […]
The scored phenotypes shown in Table 1 were determined based on the examination of light-grown, 7-day-old seedlings which were germinated on 1/2 MS plates containing either 6% glucose or 0.8 mM of 2-dGlc. Sugar insensitive (Ins), hypersensitive (Hyp), and ambiguous (A) phenotypes were scored and tabulated.

[2] = test system: Arabidopsis seedlings; test: Osmotic control experiments on 6% mannitol or 6% 3-MeGlc plates; format: in vivo; conditions: plated on 6% of the substance
Source text: To rule out the possibility that the difference in sugar sensing between transgenic and control plants was due to an osmotic effect, mannitol and 3-O-methylglucose (3-MeGlc) were used in control experiments.

[3] = test system: yeast hxk1/hxk2 double mutant (DBY2219); test: Functional complementation of yeast hxk1/hxk2 double mutant on fructose; format: cell-based, Saccharomyces cerevisiae; conditions: for Complementation of yeast double mutant, growth on fructose as sole carbon source: cDNA transformed into DBY2219
Source text: To elucidate the role of HXK as a sugar sensor, the Arabidopsis HXK genes were cloned by functional complementation using a yeast Saccharomyces cerevisiae hxk1/hxk2 double mutant (designated DBY2219), a strain which lacked HXK activity (Ma and Botstein, Mol. Cell. Biol. 6, 4046 (1986)). Using this approach, we identified two cDNAs, designated AtHXK1 (FIG. 1F; SEQ ID NO: 3, GenBank accession no. U28214) and AtHXK2 (FIG. 1G; SEQ ID NO: 4, GenBank accession no. U28215). These cDNAs, which were 2.0 and 1.9 kb in length respectively, were both found reproducibly to complement the yeast double mutant and to allow its growth on a selection plate containing fructose as the sole carbon source. […] In contrast, mutants transformed with the plasmid vector pFL61 alone were incapable of growth on the same selection media (FIG. 1A) (Minet et al., Plant J. 2, 417 (1992)).

[4] = test system: yeast hxk1/hxk2 double mutant (DBY2219); test: Yeast glucose repression assay on 2-dGlc/raffinose plate; format: cell-based, Saccharomyces cerevisiae; conditions: 2% raffinose, 2-deoxyglucose (0.02%)
Source text: To confirm this hypothesis, we sought to increase the expression of a heterologous HXK that would provide excess catalytic activity for sugar metabolism, but no regulatory function. The yeast HXK2 (YHXK2) has been proposed to have catalytic and regulatory functions, and appeared to be a good candidate for this experiment (Entian, Mol. Gen. Genet. 178, 633 (1980); Entian and Frshlich, J. Bacteriol. 158, 29 (1984); Entian et al., Mol. Cell. Biol. 5, 3035 (1985)). We first determined whether the putative regulatory functions of the YHXK2 and AtHXK were interchangeable by examining the effect of increasing the expression of AtHXK on glucose repression in a yeast hxk1/hxk2 double mutant (DBY2219). The assay was based on the YHXK2-mediated growth inhibition (i.e., glucose repression) of wild-type yeast cells on a 2-dGlc/raffinose plate. The glucose repression assay was performed using a YP plate with 2% raffinose as the carbon source in the presence of 2-deoxyglucose (0.02%) as described by Ma et al. (Mol. Cell. Biol. 9, 5643 (1989)). The glucose analog, 2-dGlc, mimics glucose by inducing strong repression of the invertase gene (SUC2), but is itself unavailable for use as a carbon source.

Molecule	Difference between control and transgenic plants [2]	Complementation of yeast double mutant, growth on fructose as sole carbon source [3]	Glucose repression in hxk1/hxk2 strain [4]	other results
O=CC[C@@H](O)[C@H](O)[C@H](O)CO [2-dGlc, 2-deoxyglucose]	–	–	–	Effect of sugar on control (wild-type) seedling development [1]: greening of cotyledons was found to be inhibited
CO[C@@H]([C@H](O)[C@H](O)CO)[C@@H](O)C=O [3-MeGlc, 3-O-methylglucose]	No apparent difference	–	–	–
OC[C@@H](O)[C@@H](O)[C@H](O)[C@H](O)CO [mannitol]	No apparent difference	–	–	–
AtHXK1: Arabidopsis hexokinase cDNA, SEQ ID NO: 3, GenBank accession no. U28214	–	complement	did not restore glucose repression	Catalytic activity in yeast transformation experiment ([3]; data not shown): higher catalytic activity than AtHXK2
AtHXK2: Arabidopsis hexokinase cDNA, SEQ ID NO: 4, GenBank accession no. U28215	–	complement	did not restore glucose repression	–

Reference: patent US6632602B1, “Plant sugar sensors and uses thereof” (The General Hospital Corporation, priority 1996, dated 2003)
